From patent US12570642B2, “GLP-IR modulating compounds” (Gilead Sciences, Inc., priority 2021, dated 2026)

Target: GLP-1R (Homo sapiens, UniProt P43220)
Test: GLP-1R Activation - cAMP Assay
Format: cell-based
Conditions: each compound run on one of the two cAMP assays (Assay 1 or Assay 2, not specified)
Summary of the method: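 CHO cells stably expressing GLP-1R, plated at 1,000 cells/well overnight, then equilibrated 1 h in HBSS with 20 mM Hepes and 0.1% BSA. Agonist added as 10-point dose response for 30 min at 37 °C. cAMP measured by HTRF (Cisbio Gs Dynamic kit); EC50 from sigmoidal fit.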

[1] = cAMP increase in CHO cells stably expressing GLP-1R

Chain of GLP-1R (P43220 24-463): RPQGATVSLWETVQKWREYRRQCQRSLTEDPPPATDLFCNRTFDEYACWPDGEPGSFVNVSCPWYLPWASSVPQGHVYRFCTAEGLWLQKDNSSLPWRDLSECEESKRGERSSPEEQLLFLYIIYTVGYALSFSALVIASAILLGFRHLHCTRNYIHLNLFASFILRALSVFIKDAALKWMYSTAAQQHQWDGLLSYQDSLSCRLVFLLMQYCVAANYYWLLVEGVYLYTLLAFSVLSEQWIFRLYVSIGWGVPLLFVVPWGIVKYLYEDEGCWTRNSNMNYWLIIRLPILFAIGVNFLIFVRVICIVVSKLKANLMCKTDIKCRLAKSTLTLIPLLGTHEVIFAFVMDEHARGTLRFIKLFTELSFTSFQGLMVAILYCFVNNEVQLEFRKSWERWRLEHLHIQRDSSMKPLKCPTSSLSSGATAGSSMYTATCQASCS

SMILES	EC50 [1]	EC50 ([…])
CC1(C)COC[C@H]1n1c(Cc2cc(F)c(-c3ccnc(OCc4ccc(C(F)(F)F)cc4F)n3)cc2F)nc2ccc(C(=O)O)cc21 [Example 285, (S)-2-(2,5-difluoro-4-(2-((2-fluoro-4-(trifluoromethyl)benzyl)oxy)pyrimidin-4-yl)benzyl)-1-(4,4-dimethyltetrahydrofuran-3-yl)-1H-benzo[d]imidazole-6-carboxylic acid]	0.096 nM	
CC1(C)COC[C@H]1n1c(Cc2cc(F)c(-c3cccc(OCc4cnc(-n5ccnn5)cc4Cl)n3)cc2F)nc2ccc(C(=O)O)cc21 [Example 118, (S)-2-(4-(6-((4-chloro-6-(1H-1,2,3-triazol-1-yl)pyridin-3-yl)methoxy)pyridin-2-yl)-2,5-difluorobenzyl)-1-(4,4-dimethyltetrahydrofuran-3-yl)-1H-benzo[d]imidazole-6-carboxylic Acid]	0.053 nM	
CC1(C)COC[C@H]1n1c(Cc2cc(F)c(-c3cccc(OCc4ccc(C(F)(F)F)nc4)n3)cc2F)nc2ccc(C(=O)O)cc21 [Example 425, (S)-2-(2,5-difluoro-4-(6-((6-(trifluoromethyl)pyridin-3-yl)methoxy)pyridin-2-yl)benzyl)-1-(4,4-dimethyltetrahydrofuran-3-yl)-1H-benzo[d]imidazole-6-carboxylic acid]	0.494 nM	
CC1(C)COC[C@H]1n1c(Cc2cc(F)c(-c3cccc(OCc4ccncc4F)n3)cc2F)nc2ccc(C(=O)O)cc21 [Example 429, (S)-2-(2,5-difluoro-4-(6-((3-fluoropyridin-4-yl)methoxy)pyridin-2-yl)benzyl)-1-(4,4-dimethyltetrahydrofuran-3-yl)-1H-benzo[d]imidazole-6-carboxylic acid]	0.139 nM	
CC1(C)COCC1n1c(Cc2cc(F)c(-c3ccnc(OCc4ccc(C(F)(F)F)cc4F)n3)cc2F)nc2c(F)cc(C(=O)O)cc21 (stereo not shown) [Example 200, 2-(2,5-difluoro-4-(2-((2-fluoro-4-(trifluoromethyl)benzyl)oxy)pyrimidin-4-yl)benzyl)-1-(4,4-dimethyltetrahydrofuran-3-yl)-4-fluoro-1H-benzo[d]imidazole-6-carboxylic acid]	0.508 nM	
CC(=O)N1C[C@@H]2[C@H](n3c(Cc4cc(F)c(-c5cccc(OCc6ccc(C#N)cc6F)n5)cc4F)nc4ccc(C(=O)O)cc43)CO[C@@H]2C1 [Example 18, 1-((3S,3aR,6aS)-5-acetylhexahydro-2H-furo[2,3-c]pyrrol-3-yl)-2-(4-(6-((4-cyano-2-fluorobenzyl)oxy)pyridin-2-yl)-2,5-difluorobenzyl)-1H-benzo[d]imidazole-6-carboxylic Acid]	49.2 nM	
CC1(C)COC[C@H]1n1c(Cc2cc(F)c(-c3cccc(OCc4ccc(C(F)(F)F)nn4)n3)cc2F)nc2ccc(C(=O)O)cc21 [Example 470, (S)-2-(2,5-difluoro-4-(6-((6-(trifluoromethyl)pyridazin-3-yl)methoxy)pyridin-2-yl)benzyl)-1-(4,4-dimethyltetrahydrofuran-3-yl)-1H-benzo[d]imidazole-6-carboxylic acid]	1.61 nM	
CC1(C)COC[C@H]1n1c(Cc2c(F)cc(-c3cccc(OCc4ccc(C#N)cc4)n3)c(F)c2F)nc2c(F)cc(C(=O)O)cc21 [Example 244, (S)-2-(4-(6-((4-cyanobenzyl)oxy)pyridin-2-yl)-2,3,6-trifluorobenzyl)-1-(4,4-dimethyltetrahydrofuran-3-yl)-4-fluoro-1H-benzo[d]imidazole-6-carboxylic acid]	0.015 nM	
CC1(C)COC[C@H]1n1c(Cc2cc(F)c(-c3cccc(OCc4ccc(Cl)c(F)c4F)n3)cc2F)nc2ccc(C(=O)O)cc21 [Example 488, (S)-2-(4-(6-((4-chloro-2,3-difluorobenzyl)oxy)pyridin-2-yl)-2,5-difluorobenzyl)-1-(4,4-dimethyltetrahydrofuran-3-yl)-1H-benzo[d]imidazole-6-carboxylic acid]	0.282 nM	
COC[C@H]1COC[C@H]1n1c(Cc2cc(F)c(-c3ccc(F)c(OCc4ccc(Cl)cc4F)n3)cc2F)nc2ccc(C(=O)O)cc21 [Example 543, 2-(4-(6-((4-chloro-2-fluorobenzyl)oxy)-5-fluoropyridin-2-yl)-2,5-difluorobenzyl)-1-((3S,4S)-4-(methoxymethyl)tetrahydrofuran-3-yl)-1H-benzo[d]imidazole-6-carboxylic acid]	0.038 nM	
COCCn1c(Cc2cc(F)c(-c3cc(C(F)F)cc(OCc4ccc(C#N)cc4F)n3)cc2F)nc2ccc(C(=O)O)cc21 [Example 41]	4.88 nM	
CC1(C)OCCC1n1c(Cc2cc(F)c(-c3cccc(OCc4ccc(C#N)cc4F)n3)cc2F)nc2ccc(C(=O)O)cc21 (stereo not shown) [Example 74, 2-(4-(6-((4-cyano-2-fluorobenzyl)oxy)pyridin-2-yl)-2,5-difluorobenzyl)-1-(2,2-dimethyltetrahydrofuran-3-yl)-1H-benzo[d]imidazole-6-carboxylic Acid]	4.38 nM	
CC1(C)COCC1n1c(Cc2cc(F)c(-c3cccc(OCc4c(F)cc(Cl)cc4F)n3)cc2F)nc2c(F)cc(C(=O)O)cc21 (stereo not shown) [Example 499, 2-(4-(6-((4-chloro-2,6-difluorobenzyl)oxy)pyridin-2-yl)-2,5-difluorobenzyl)-1-(4,4-dimethyltetrahydrofuran-3-yl)-4-fluoro-1H-benzo[d]imidazole-6-carboxylic acid]	0.508 nM	
COCCn1c(Cc2cc(F)c(-c3cccc(OCc4ccc(-c5cnn(CC(F)F)c5)cc4F)n3)cc2F)nc2ccc(C(=O)O)cc21 [Example 114]	5.99 nM	
Cn1c(=O)sc2cc(COc3cccc(-c4cc(F)c(Cc5nc6ccc(C(=O)O)cc6n5C[C@@H]5CCO5)cc4F)n3)ccc21 [Example 531, (S)-2-(2,5-difluoro-4-(6-((3-methyl-2-oxo-2,3-dihydrobenzo[d]thiazol-6-yl)methoxy)pyridin-2-yl)benzyl)-1-(oxetan-2-ylmethyl)-1H-benzo[d]imidazole-6-carboxylic acid]	0.396 nM	
Cc1ccc(COc2cccc(-c3cc(F)c(Cc4nc5ccc(C(=O)O)cc5n4[C@@H]4COCC4(C)C)cc3F)n2)cc1 [Example 361, (S)-2-(2,5-difluoro-4-(6-((4-methylbenzyl)oxy)pyridin-2-yl)benzyl)-1-(4,4-dimethyltetrahydrofuran-3-yl)-1H-benzo[d]imidazole-6-carboxylic acid]	0.131 nM	
CC1(C)COC[C@H]1n1c(Cc2cc(F)c(-c3ccc(F)c(OCc4ccc(Cl)cc4F)n3)cc2F)nc2c(F)cc(C(=O)O)cc21 [Example 495, (S)-2-(4-(6-((4-chloro-2-fluorobenzyl)oxy)-5-fluoropyridin-2-yl)-2,5-difluorobenzyl)-1-(4,4-dimethyltetrahydrofuran-3-yl)-4-fluoro-1H-benzo[d]imidazole-6-carboxylic acid]	0.144 nM	
CC1(C)COC[C@H]1n1c(Cn2cc(F)c(-c3cccc(OCc4ccc(C#N)cc4F)n3)cc2=O)nc2c(F)cc(C(=O)O)cc21 [Example 145, (S)-2-((6-((4-cyano-2-fluorobenzyl)oxy)-5′-fluoro-2′-oxo-[2,4′-bipyridin]-1′(2′H)-yl)methyl)-1-(4,4-dimethyltetrahydrofuran-3-yl)-4-fluoro-1H-benzo[d]imidazole-6-carboxylic Acid]	0.022 nM	
CC1(C)COC[C@H]1n1c(Cc2c(F)cc(-c3ccc(F)c(OCc4ccc(Cl)cc4)n3)c(F)c2F)nc2c(F)cc(C(=O)O)cc21 [Example 310, (S)-2-(4-(6-((4-chlorobenzyl)oxy)-5-fluoropyridin-2-yl)-2,3,6-trifluorobenzyl)-1-(4,4-dimethyltetrahydrofuran-3-yl)-4-fluoro-1H-benzo[d]imidazole-6-carboxylic acid]	0.032 nM	
CO[C@@H]1CN(S(C)(=O)=O)C[C@@H]1n1c(Cc2cc(F)c(-c3cccc(OCc4ccc(C#N)cc4F)n3)cc2F)nc2ccc(C(=O)O)cc21 [Example 89, 2-(4-(6-((4-cyano-2-fluorobenzyl)oxy)pyridin-2-yl)-2,5-difluorobenzyl)-1-((3S,4R)-4-methoxy-1-(methylsulfonyl)pyrrolidin-3-yl)-1H-benzo[d]imidazole-6-carboxylic Acid]		15.3 nM
CC1(C)COCC1n1c(Cc2cc(F)c(-c3cccc(OCc4ccc(Cl)cc4)n3)cc2F)nc2ccc(C(=O)O)cc21 (stereo not shown) [Example 387, 2-(4-(6-((4-chlorobenzyl)oxy)pyridin-2-yl)-2,5-difluorobenzyl)-1-(4,4-dimethyltetrahydrofuran-3-yl)-1H-benzo[d]imidazole-6-carboxylic acid]	0.043 nM	
Cc1cc(Cc2nc3ccc(C(=O)O)cc3n2[C@@H]2COCC2(C)C)c(F)cc1-c1cccc(OCc2ccc(Cl)cc2F)n1 [Example 280, (S)-2-(4-(6-((4-chloro-2-fluorobenzyl)oxy)pyridin-2-yl)-2-fluoro-5-methylbenzyl)-1-(4,4-dimethyltetrahydrofuran-3-yl)-1H-benzo[d]imidazole-6-carboxylic acid]	0.165 nM	
CC(F)(F)c1ccc(COc2cccc(-c3cc(F)c(Cc4nc5ccc(C(=O)O)cc5n4[C@@H]4COCC4(C)C)cc3F)n2)nc1 [Example 195, (S)-2-(4-(6-((5-(1,1-difluoroethyl)pyridin-2-yl)methoxy)pyridin-2-yl)-2,5-difluorobenzyl)-1-(4,4-dimethyltetrahydrofuran-3-yl)-1H-benzo[d]imidazole-6-carboxylic acid]	0.539 nM	
CC1(C)COC[C@H]1n1c(Cc2cc(F)c(-c3cccc(OCc4ccc(C#N)cc4F)n3)cc2F)nc2c(F)cc(C(=O)O)cc21 [Example 12, (S)-2-(4-(6-((4-cyano-2-fluorobenzyl)oxy)pyridin-2-yl)-2,5-difluorobenzyl)-1-(4,4-dimethyltetrahydrofuran-3-yl)-4-fluoro-1H-benzo[d]imidazole-6-carboxylic Acid]	0.03 nM	
CC1(C)COC[C@H]1n1c(Cc2cc(F)c(-c3cccc(OCc4ccc(-n5ccnn5)cc4)n3)cc2F)nc2c(F)cc(C(=O)O)cc21 [Example 186, (S)-2-(4-(6-((4-(1H-1,2,3-triazol-1-yl)benzyl)oxy)pyridin-2-yl)-2,5-difluorobenzyl)-1-(4,4-dimethyltetrahydrofuran-3-yl)-4-fluoro-1H-benzo[d]imidazole-6-carboxylic acid]	0.018 nM	
